ChEMBL document CHEMBL3044933, “Synthesis and insect antifeedant activity of aurones against Spodoptera litura larvae” (J Agric Food Chem, 2007)
Active and inactive are the calls of the source. No cut-off for these calls is given here.

How the values were obtained:
[1] = test system: Spodoptera litura; experiment: Antifeedant activity against Spodoptera litura in compound treated cork borer from fresh sweet potato leaves assessed as leaf disk consumed at 26.5 degC; format: functional
[2] = Lipophilicity, log k of the compound from retention time in ODS HPLC
[3] = test system: Spodoptera litura; experiment: Antifeedant activity against Spodoptera litura in compound treated cork borer from fresh sweet potato leaves assessed as leaf disk consumed at 0.33 mg/cm2 at 26.5 degC; format: functional

| Compound | ED50 [1] | pED50 [1] | log k [2] | Activity [3] [%] |
| --- | --- | --- | --- | --- |
| COc1cccc(/C=C2\Oc3ccccc3C2=O)c1 [3'-METHOXY-AURONE] | 1.01 umol/cm2 | 6 | 0.737 |  |
| COc1ccc(/C=C2\Oc3cc(OC)c(OC)c(OC)c3C2=O)cc1OC | inactive |  |  | <40 |
| COc1cc(OC)c2c(c1)OCC2=O [4,6-DIMETHOXYCOUMARANONE] | 3.87 umol/cm2 | 5.41 |  |  |
| O=C1/C(=C/c2ccc(O)c(O)c2)Oc2ccccc21 | inactive |  |  | <40 |
| COc1ccc(/C=C2\Oc3ccccc3C2=O)cc1 [4'-METHOXY-AURONE] | 2.03 umol/cm2 | 5.69 | 0.689 |  |
| COc1cc(OC)c2c(c1)O/C(=C\c1ccc(OC)c(OC)c1)C2=O [4,6,3',4'-TETRAMETHOXYAURONE] | 0.12 umol/cm2 | 6.92 | 0.277 |  |
| O=C1/C(=C/c2ccccc2)Oc2ccccc21 [(Z)-AURONE] | inactive |  |  | <40 |
| O=C1/C(=C/c2cccc(Br)c2)Oc2ccccc21 | 4.21 umol/cm2 | 5.38 | 1.05 |  |
| O=C1COc2ccccc21 [3-COUMARANONE] | inactive |  |  | <40 |
| COc1cc2c(c(OC)c1OC)C(=O)CO2 [4,5,6-TRIMETHOXYCOUMARANONE] | 0.41 umol/cm2 | 6.39 |  |  |
| COc1cc(OC)c2c(c1)O/C(=C\c1ccccc1)C2=O | 0.85 umol/cm2 | 6.07 | 0.56 |  |
| COc1cc(/C=C2\Oc3ccccc3C2=O)ccc1O | inactive |  |  | <40 |
| COc1cc(/C=C2\Oc3ccccc3C2=O)cc(OC)c1 | 3.45 umol/cm2 | 5.46 | 0.741 |  |
| COc1ccc(/C=C2\Oc3cc(C)cc(C)c3C2=O)cc1OC | 1.02 umol/cm2 | 5.99 |  |  |
| Cc1cc(C)c2c(c1)OCC2=O [4,6-DIMETHYLCOUMARANONE] | 0.68 umol/cm2 | 6.17 |  |  |
| Cc1cc(C)c2c(c1)O/C(=C\c1ccc(C)c(C)c1)C2=O | inactive |  |  | <40 |
| CCOc1cc(/C=C2\Oc3ccccc3C2=O)ccc1O | 1.96 umol/cm2 | 5.71 | 0.382 |  |
| COc1ccc(/C=C2\Oc3ccccc3C2=O)cc1OC [3',4'-DIMETHOXY-AURONE] | 0.86 umol/cm2 | 6.07 | 0.741 |  |
| C/C=C(/C)C(=O)O[C@H]1C[C@@H](OC(C)=O)[C@@]2(C)CO[C@H]3[C@H]4O[C@@H]5C[C@@H](c6ccoc6)C(C)=C5[C@@]4(C)[C@H](CC(=O)OC)[C@]1(C)[C@@H]32 [SALANNIN] | 0.066 umol/cm2 | 7.18 |  |  |
| COc1cc(OC)c2c(c1)O/C(=C\c1ccc(C)c(C)c1)C2=O | inactive |  |  | <40 |
| COc1ccccc1/C=C1\Oc2ccccc2C1=O [(Z)-2'-METHOXYAURONE] | inactive |  |  | <40 |
| O=C1/C(=C/c2ccc3c(c2)OCO3)Oc2ccccc21 | 1.61 umol/cm2 | 5.79 | 0.624 |  |
| O=C1/C(=C/c2cccc(Cl)c2)Oc2ccccc21 | inactive |  |  | <40 |
| COc1cc(/C=C2\Oc3ccccc3C2=O)cc(OC)c1OC | inactive |  |  | <40 |
